In experiment [1] the target is PI3Kγ (p110γ) Recombinant Human Protein (Homo sapiens (Human), UniProt P48736). Nature of the experiment: PI3K-γ Scintillation Proximity Assay. The experiment is classed as biochemical. To be noted: 2 μM ATP, 20 μM PIP2, 13 nM PI3Kγ. The text has this:
PI3K-γ Scintillation Proximity Assay
[γ-^33]ATP (10 mCi/mL) and Wheat Germ Agglutinin (WGA) YSi SPA Scintillation Beads was purchased from Perkin-Elmer (Waltham, Mass.). Lipid kinase substrate, D-myo-Phosphatidylinositol 4,5-bisphosphate (PtdIns(4,5)P2)D (+)-sn-1,2-di-O-octanoylglyceryl, 3-O-phospho linked (PIP2), CAS 204858-53-7, was purchased from Echelon Biosciences (Salt Lake City, Utah). PI3Kγ (p110γ) Recombinant Human Protein was purchased from Life technology (Grand Island, N.Y.). ATP, MgCl2, DTT, EDTA, MOPS and CHAPS were purchased from SigmaAldrich (St. Louis, Mo.).
The kinase reaction was conducted in polystyrene 384-well Greiner Bio-one white plate from Thermo Fisher Scientific in a final volume of 25 μL. Inhibitors were first diluted serially in DMSO and added to the plate wells before the addition of other reaction components. The final concentration of DMSO in the assay was 2%. The PI3Kγ assay was carried out at room temperature in 20 mM MOPS, pH 6.7, 10 mM MgCl2, 5 mM DTT and CHAPS 0.03%. Reactions were initiated by the addition of ATP, the final reaction mixture consisted of 20 μM PIP2, 2 μM ATP, 0.5 μCi [γ-^33P] ATP, 13 nM PI3Kγ. […] After the plate sealing, plates were shaken overnight at room temperature and centrifuged at 1500 rpm for 10 min, the radioactivity of the product was determined by scintillation counting on Topcount (Perkin-Elmer). […]
(SPA uses beads or plates that emit light when radiolabelled molecules are held near them.)

Experiment [2] concerns the target PI3Kδ (p110δ/p85α) Recombinant Human Protein (Homo sapiens (Human), UniProt O00329). Nature of the experiment: PI3Kδ Scintillation Proximity Assay. Format: biochemical. To be noted: 2 μM ATP, 20 μM PIP2, 3.4 nM PI3Kδ. The text has this:
PI3Kδ Scintillation Proximity Assay
[γ-^33P]ATP (10 mCi/mL) and Wheat Germ Agglutinin (WGA) YSi SPA Scintillation Beads was purchased from Perkin-Elmer (Waltham, Mass.). Lipid kinase substrate, D-myo-Phosphatidylinositol 4,5-bisphosphate (PtdIns(4,5)P2)D (+)-sn-1,2-di-O-octanoylglyceryl, 3-O-phospho linked (PIP2), CAS 204858-53-7, was purchased from Echelon Biosciences (Salt Lake City, Utah). PI3Kδ (p110δ/p85α) Recombinant Human Protein was purchased from Eurofins (St Charles, Mo.). ATP, MgCl2, DTT, EDTA, MOPS and CHAPS were purchased from SigmaAldrich (St. Louis, Mo.).
The kinase reaction was conducted in polystyrene 384-well Greiner Bio-one white plate from Thermo Fisher Scientific in a final volume of 25 μL. Inhibitors were first diluted serially in DMSO and added to the plate wells before the addition of other reaction components. The final concentration of DMSO in the assay was 2%. The PI3Kδ assay was carried out at room temperature in 20 mM MOPS, pH 6.7, 10 mM MgCl2, 5 mM DTT and CHAPS 0.03%. Reactions were initiated by the addition of ATP, the final reaction mixture consisted of 20 μM PIP2, 2 μM ATP, 0.5 μCi [γ-^33P] ATP, 3.4 nM PI3Kδ. Reactions were incubated for 120 min and terminated by the addition of 40 μL SPA beads suspended in quench buffer: 163 mM potassium phosphate pH 7.8, 20% glycerol, 25 mM EDTA. The final concentration of SPA beads is 1.0 mg/mL. After the plate sealing, plates were shaken overnight at room temperature and centrifuged at 1500 rpm for 10 min, the radioactivity of the product was determined by scintillation counting on Topcount (PerkinElmer). IC50 determination was performed by fitting the curve of percent of the solvent control activity versus the log of the inhibitor concentration using the GraphPad Prism 6.0 software.

Experiment [3] relates to Phosphorylated Ribosomal Protein S6 (RPS6) in THP-1 cells (PI3Kγ). Nature of the experiment: THP-1 RPS6 ELISA Assay. The note with it: 10 nM MCP-1 for 15 minutes, Phospho-RPS6 ELISA, read-out: PI3Kγ_THP1_RPS6_ELISA IC50. Format: cell-based, Human. The procedure: To measure the Phosphorylated Ribosomal Protein S6 (RPS6) in cell lysates, THP-1 cells (Human Acute Monocytic Leukemia) are purchased from ATCC (Manassas, Va.) and maintained in RPMI with 10% FBS (Gibco/Life Technologies, Carlsbad, Calif.). For the assay, THP-1 cells are serum starved overnight in RPMI, then plated in RPMI (2×10^5 cells/well in 90 μL) into 96-well flat-bottom tissue culture treated plates (Corning, Corning, N.Y.), in the presence or absence of a concentration range of test compounds. Covered plates are incubated for 2 hours at 37° C., 5% CO2 then treated with or without 10 nM MCP-1(MYBioSource, San Diego, Calif.) for 15 minutes at 37° C., 5% CO2. Plates are centrifuged at 1600 RPM and supernatants are removed. Cells are lysed in Lysis Buffer (Cell Signaling, Danvers, Mass.) with Protease Inhibitor (Calbiochem/EMD, Germany), PMSF (Sigma, St Louis Mo.), HALTS (Thermo Fisher, Rockford, Ill.) for 30 min on wet ice. Cell lysates are frozen at −80° C. before testing. The lysates are tested in the Human/Mouse/Rat Phospho-RPS6 ELISA (R&D Systems, Inc. Minn, Minn.). The plate is measured using a microplate reader (SpectraMax M5—Molecular Devices, LLC Sunnyvale, Calif.) set to 450 nm with a wavelength correction of 540. IC50 determination is performed by fitting the curve of inhibitor percent inhibition versus the log of the inhibitor concentration using the GraphPad Prism 5.0 software.
(In general: An ELISA detects its analyte on a solid surface through an enzyme-linked reagent.)

Experimental findings from patent US11186580B2, “Crystalline forms of a phosphoinositide 3-kinase (PI3K) inhibitor” (Incyte Corporation, priority 2018, dated 2021) are described below.

Where two headings read alike, the source gives them in different places.

For orientation: IC50 means the concentration at which inhibition is half-maximal.

Sequence of PI3Kδ (p110δ/p85α) Recombinant Human Protein (O00329 whole entry): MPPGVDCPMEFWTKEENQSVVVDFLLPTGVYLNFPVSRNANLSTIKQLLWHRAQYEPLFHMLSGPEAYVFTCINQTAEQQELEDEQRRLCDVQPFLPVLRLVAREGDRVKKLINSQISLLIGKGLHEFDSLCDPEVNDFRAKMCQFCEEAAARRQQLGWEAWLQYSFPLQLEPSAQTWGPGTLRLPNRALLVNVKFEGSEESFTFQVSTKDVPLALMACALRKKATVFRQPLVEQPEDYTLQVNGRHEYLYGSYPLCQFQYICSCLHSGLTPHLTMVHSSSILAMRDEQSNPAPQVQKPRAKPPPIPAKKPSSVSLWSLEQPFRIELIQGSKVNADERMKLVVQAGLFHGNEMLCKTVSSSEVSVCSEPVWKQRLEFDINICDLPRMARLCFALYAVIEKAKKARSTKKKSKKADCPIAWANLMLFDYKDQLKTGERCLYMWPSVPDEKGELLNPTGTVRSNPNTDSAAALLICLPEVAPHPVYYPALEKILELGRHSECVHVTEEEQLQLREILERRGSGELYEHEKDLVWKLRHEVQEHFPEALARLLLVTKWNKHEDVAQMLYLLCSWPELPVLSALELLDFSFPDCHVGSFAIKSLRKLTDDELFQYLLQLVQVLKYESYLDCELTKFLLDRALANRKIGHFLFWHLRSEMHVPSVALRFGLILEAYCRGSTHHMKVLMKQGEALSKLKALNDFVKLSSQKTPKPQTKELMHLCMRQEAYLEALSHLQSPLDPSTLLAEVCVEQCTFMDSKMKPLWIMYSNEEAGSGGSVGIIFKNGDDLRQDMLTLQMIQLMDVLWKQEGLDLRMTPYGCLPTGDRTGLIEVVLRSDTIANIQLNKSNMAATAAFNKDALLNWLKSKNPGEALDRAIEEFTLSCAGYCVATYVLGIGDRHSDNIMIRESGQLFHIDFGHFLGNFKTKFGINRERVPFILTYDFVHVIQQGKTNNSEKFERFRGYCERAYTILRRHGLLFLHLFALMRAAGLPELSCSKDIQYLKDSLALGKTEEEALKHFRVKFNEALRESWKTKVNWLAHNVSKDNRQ
Sequence of PI3Kδ (p110δ/p85α) Recombinant Human Protein (P27986 whole entry partner): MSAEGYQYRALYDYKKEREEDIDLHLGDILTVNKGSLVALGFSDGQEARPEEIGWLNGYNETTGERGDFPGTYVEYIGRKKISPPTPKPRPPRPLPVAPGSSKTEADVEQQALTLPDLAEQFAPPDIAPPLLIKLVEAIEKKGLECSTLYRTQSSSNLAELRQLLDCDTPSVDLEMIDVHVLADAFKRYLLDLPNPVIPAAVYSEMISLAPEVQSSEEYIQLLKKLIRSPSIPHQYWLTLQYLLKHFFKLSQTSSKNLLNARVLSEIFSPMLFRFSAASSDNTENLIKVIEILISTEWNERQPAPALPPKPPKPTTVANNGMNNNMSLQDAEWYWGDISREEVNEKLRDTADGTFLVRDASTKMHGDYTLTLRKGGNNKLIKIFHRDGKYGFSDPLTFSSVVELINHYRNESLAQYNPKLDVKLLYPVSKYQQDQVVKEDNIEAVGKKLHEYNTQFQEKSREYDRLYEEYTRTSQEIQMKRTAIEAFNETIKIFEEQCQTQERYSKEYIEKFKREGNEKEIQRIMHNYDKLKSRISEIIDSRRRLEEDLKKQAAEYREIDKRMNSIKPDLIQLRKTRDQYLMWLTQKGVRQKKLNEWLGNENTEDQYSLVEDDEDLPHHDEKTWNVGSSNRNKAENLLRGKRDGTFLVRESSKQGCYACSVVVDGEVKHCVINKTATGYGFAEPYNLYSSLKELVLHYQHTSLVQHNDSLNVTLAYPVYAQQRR
Sequence of PI3Kγ (p110γ) Recombinant Human Protein (P48736 whole entry): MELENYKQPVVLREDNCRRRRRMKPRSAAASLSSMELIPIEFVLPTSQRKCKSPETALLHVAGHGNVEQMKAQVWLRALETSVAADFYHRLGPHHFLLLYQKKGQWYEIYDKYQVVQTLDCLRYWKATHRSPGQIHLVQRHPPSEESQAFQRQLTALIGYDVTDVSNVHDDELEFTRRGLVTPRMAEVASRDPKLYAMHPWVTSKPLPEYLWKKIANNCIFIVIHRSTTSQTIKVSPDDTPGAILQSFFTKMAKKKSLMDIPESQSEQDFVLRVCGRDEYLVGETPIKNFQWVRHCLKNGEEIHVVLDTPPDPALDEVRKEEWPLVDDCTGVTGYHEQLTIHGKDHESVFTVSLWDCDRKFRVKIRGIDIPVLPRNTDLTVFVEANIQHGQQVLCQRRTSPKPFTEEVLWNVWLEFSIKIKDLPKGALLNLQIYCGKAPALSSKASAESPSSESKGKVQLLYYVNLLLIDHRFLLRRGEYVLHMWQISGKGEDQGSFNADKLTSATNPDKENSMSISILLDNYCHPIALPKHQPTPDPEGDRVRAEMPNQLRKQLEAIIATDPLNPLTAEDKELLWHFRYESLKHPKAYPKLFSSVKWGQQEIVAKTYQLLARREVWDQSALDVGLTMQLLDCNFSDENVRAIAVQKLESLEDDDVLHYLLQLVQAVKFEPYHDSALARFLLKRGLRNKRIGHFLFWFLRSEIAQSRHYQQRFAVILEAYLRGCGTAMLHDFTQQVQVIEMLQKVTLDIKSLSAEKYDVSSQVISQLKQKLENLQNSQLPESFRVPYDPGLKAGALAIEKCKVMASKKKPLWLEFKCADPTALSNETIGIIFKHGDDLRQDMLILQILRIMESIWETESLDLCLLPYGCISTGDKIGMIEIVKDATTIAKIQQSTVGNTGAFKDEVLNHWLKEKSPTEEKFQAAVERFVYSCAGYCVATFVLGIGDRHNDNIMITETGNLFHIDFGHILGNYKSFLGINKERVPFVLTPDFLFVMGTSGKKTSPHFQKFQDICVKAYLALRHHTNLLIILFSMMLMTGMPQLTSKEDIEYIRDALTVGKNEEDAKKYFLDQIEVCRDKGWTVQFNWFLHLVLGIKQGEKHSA

Consider `Cc1ccc(C(O)(C(N)=O)C(F)(F)F)cc1-c1cnc2c(N)nc(C(F)(F)F)cn12` (single isomer, unassigned) [Example 1, 2-(3-(8-Amino-6-(trifluoromethyl)imidazo[1,2-a]pyrazin-3-yl)-4-methylphenyl)-3,3,3-trifluoro-2-hydroxypropanamide], for which the half-inhibitory concentration (IC50) in experiment [1] and in experiment [2] was under 0.1 µM throughout.
For `Cc1ccc(C(C)(O)C(F)(F)F)cc1-c1cnc2c(N)nc(C(=O)NCC(C)(C)O)cn12` (single isomer, unassigned) [Example 5, 8-Amino-N-(2-hydroxy-2-methylpropyl)-3-(2-methyl-5-(1,1,1-trifluoro-2-hydroxypropan-2-yl)phenyl)imidazo[1,2-a]pyrazine-6-carboxamide], the IC50 in experiment [2] is under 0.5 µM; in experiment [3] (Homo sapiens, THP-1, 0.25 h), over 1 µM.
As for `Cc1ccc(C(C)(O)C(F)(F)F)cc1-c1cnc2c(N)nc(C(=O)NCC(C)(C)O)cn12` (single isomer, unassigned) [Example 6, 8-Amino-N-(2-hydroxy-2-methylpropyl)-3-(2-methyl-5-(1,1,1-trifluoro-2-hydroxypropan-2-yl)phenyl)imidazo[1,2-a]pyrazine-6-carboxamide], the IC50 in experiment [2] and in experiment [3] was under 0.5 µM in each case.
In the case of `[2H]C([2H])([2H])c1ccc(C(C)(O)C(F)(F)F)cc1-c1cnc2c(N)nc(C(=O)NCC(C)(C)O)cn12` (single isomer, unassigned) [Example 9, 8-Amino-N-(2-hydroxy-2-methylpropyl)-3-(2-(methyl-d3)-5-(1,1,1-trifluoro-2-hydroxypropan-2-yl)phenyl)imidazo[1,2-a]pyrazine-6-carboxamide], in experiment [3] (Homo sapiens, THP-1, 0.25 h), the IC50 was under 0.5 µM.
